Reference: US20050054637A1, “Substituted piperazine cyclohexane carboxilic acid amides and the use thereof” (priority 2001, published 2005)

Columns and labels:
[1] = system: adenosine uptake in rabbit erythrocytes; test: Inhibition of the adenosine uptake in rabbit erythrocytes (functional adenosine-uptake test); assay type: cell-based; details: Oryctolagus cuniculus, 0.25 h; rabbit erythrocyte preparation, 30° C., adenosine remaining 15 min after addition of adenosine
Procedure: 1. Inhibition of the Adenosine Uptake in Rabbit Erythrocytes by the Compounds According to the Invention
The capability of substnaces to influence the adenosine-uptake system is investigated by determining the inhibitory effect of the substances on functional adenosine uptake.
For the functional adenosine-uptake test, an erythrocyte preparation from rabbit blood is used. The blood is drawn intravenously using citrate (3 ml Monovette 9NC from Sarstedt) as anticoagulant. The blood is centrifuged at 3000 g for 5 min and the erythrocytes are suspended in 10 mM 3-(N-morpholino)propanesulphonic acid buffer (MOPS)/0.9% aqueous sodium chloride solution pH 7.4. The suspension is diluted to one hundredth of the original blood volume. In each case, 990 μl of the suspension are admixed with 10 μl of a suitable concentration of the substance to be examined, and the mixture is incubated at 30° C. for 5 min. 5 μl of a 4 mM adenosine solution are then added, and the mixture is incubated at 30° C. for another 15 min. The samples are then centrifuged at 3000 g for 5 min and in each case 700 μl of the supernatant are mixed with 28 μl of 70% strength HClO4, allowed to stand in an ice bath for 30 min and centrifuged at 16 000 g for 3 min, and 350 μl of the sample are neutralized using 30 μl of 5 N NaOH. 50 μl of the sample are applied to a column (Waters Symmetry C18 5 μm, 3.9×150 mm). A Spherisorb ODS II 5 μm, 4.6×10 mm column is used as precolumn The mobile phase used is a gradient of 50 mM KH2PO4/5 mM tributylamine pH 7 (mobile phase A) and a mixture of mobile phase A/methanol 1:1 (mobile phase B). The gradient is from 10% to 40% B, at a flow rate of 0.5 ml/min. The adenosine which is present is quantified by its absorption at 260 nm, as are the hypoxanthine and inosine formed.
Table 1 below lists the IC50 values obtained using this test: […]

[2] = system: mongrel dogs; test: In vivo test model for adenosine-uptake inhibitors: reactive hyperaemia after coronary occlusion in anaesthetized dogs; set-up: species or system dog; details: 10 μg/kg i.v., reactive hyperaemia after four-minute occlusion
Procedure: 2. In vivo Test Model for Testing Adenosine-Uptake Inhibitors
Adult mongrel dogs (body weight 20-30 kg) are initially anaesthetized using a combination of trapanal 500 mg and alloferin 55 mg. Anaesthesia is maintained by infusion of a mixture of fentanyl 0.072 mg/kg, alloferin 0.02 mg/kg and dihydrobenzpyridyl 0.25 mg/kg×min. The animals are intubated and ventilated with a mixture of O2/N2O (ratio 1:5) using a Dräger ventilation pump at 16 breaths per min and a volume of 18-24 ml/kg. The body temperature is maintained at 38° C.±0.1° C. Arterial blood pressure is measured via a catheter in the femoral artery. A thoractomy is carried out on the left side at the fifth intercostal space. The lung is pushed back and fixed and a cut is made in the pericardium. A proximal section of the LAD distally to the first diagonal branch is exposed and a calibrated electromagnetic flow sensor (from Scalar) is placed around the vessel and attached to a flow meter (from Scalar, model MDL 1401). Distally to the flow sensor, a mechanical occluder is attached such that there are no branches in between flow sensor and occluder.
Using a catheter in the femoral vein, blood samples are taken and substances (10 μg/kg i.v.) are administered. A peripheral ECG is recorded using needles which are fixed subcutaneously. A microtip pressure manometer (from Millar, model PC-350) is pushed through the left atrium to measure the pressure in the left ventricle. Measurement of the heart frequency is triggered by the R wave of the ECG. During the entire experiment, the haemodynamic parameters and the coronary flow are recorded using a multi-event recorder.
A four-minute occlusion causes reactive hyperaemia. The difference between the coronary flow under control conditions and the maximum flow during the reactive hyperaemia is measured. The time which is required to achieve half of this maximum flow in the drop is a suitable parameter to assess the reaction hyperaemia.
After a stabilization period of one hour, the experiment is started with a four-minute occlusion. Thirty minutes later, the substance is administered (i.v.) which is, after two minutes, followed by re-occlusion. The reactive hyperaemia after verum and placebo is compared.

In the case of `NC(=O)[C@@H](NC(=O)[C@@H]1CCCC[C@H]1N1CCN(C(=O)c2ccccc2)CC1)c1ccc(F)cc1` [Example 2, (1R,2R)-N-[(1S)-2-Amino-2-oxo-1-(4-fluorophenyl)ethyl]-2-(4-benzoyl-1-piperazin-yl)cyclohexanecarboxamide], the IC50 [1] is reported as 0.03 µM.
For `NC(=O)[C@@H](NC(=O)[C@@H]1CCCC[C@H]1N1CCN(C(=O)c2ccc3c(c2)OCO3)CC1)c1ccccc1` [Example 66], the IC50 [1] was 0.02 µM.
`NC(=O)[C@@H](NC(=O)[C@@H]1CCCC[C@H]1N1CCN(C(=O)c2n[nH]c3ccccc23)CC1)c1ccccc1` [Example 3, (1R,2R)-N-[(1S)-2-Amino-2-oxo-1-phenylethyl]-2-[4-(1H-indazol-3-ylcarbonyl)-1-piperazinyl]cyclohexanecarboxamide] was tested, and the IC50 [1] was 0.03 µM.
`NC(=O)[C@@H](NC(=O)[C@@H]1CCCC[C@H]1N1CCN(C(=O)c2ccccc2F)CC1)c1ccccc1` [Example 27] showed an IC50 [1] of 0.02 µM.
For `NC(=O)[C@@H](NC(=O)[C@@H]1CCCC[C@H]1N1CCN(C(=O)c2ccccc2)CC1)c1ccccc1` [Example 1, (1R,2R)-N-[(1S)-2-Amino-2-oxo-1-phenylethyl]-2-(4-benzoyl-1-piperazinyl)cyclo-hexanecarboxamide], the “Increase of coronary blood flow in %” value [2] was 258% and the IC50 [1] was 0.03 µM.
In the case of `Cc1ccc(C(=O)N2CCN([C@@H]3CCCC[C@H]3C(=O)N[C@H](C(N)=O)c3ccccc3)CC2)s1` [Example 17, (1R,2R)-N-[(1S)-2-Amino-2-oxo-1-phenylethyl]-2-{4-[(5-methyl-2-thienyl)-carbonyl]-1-piperazinyl}cyclohexanecaiboxamide], the “Increase of coronary blood flow in %” value [2] is reported as 250% and the IC50 [1] is reported as 0.02 µM.
For `NC(=O)[C@@H](NC(=O)[C@@H]1CCCC[C@H]1N1CCN(C(=O)OC2CCCC2)CC1)c1ccccc1` [Example 21], the IC50 [1] was 0.015 µM.
`NC(=O)[C@@H](NC(=O)[C@@H]1CCCC[C@H]1N1CCN(Cc2ccccc2)CC1)c1ccc(F)cc1` [Example 8, (1R,2R)-N-[(1S)-2-Amino-1-(4-fluorophenyl)-2-oxoethyl]-2-(4-benzyl-1-piperazinyl)cyclohexanecarboxamide] gave an IC50 [1] of 0.08 µM.
With `NC(=O)[C@@H](NC(=O)[C@@H]1CCCC[C@H]1N1CCN(C(=O)c2ccc(F)cc2F)CC1)c1ccccc1` [Example 16, (1R,2R)-N-[(1S)-2-Amino-2-oxo-1-phenylethyl]-2-[4-(2,4-difluorobenzoyl)-1-piperazinyl)cyclohexanecarboxamide] the “Increase of coronary blood flow in %” value [2] was 326% and the IC50 [1] was 0.03 µM.
For `NC(=O)[C@@H](NC(=O)[C@@H]1CCCC[C@H]1N1CCN(C(=O)c2ccc[nH]2)CC1)c1ccccc1` [Example 18, (1R,2R)-N-[(1S)-2-Amino-2-oxo-1-phenylethyl]-2-{4-[(2-pyrrolyl)carbonyl]-1-piperazinyl}cyclohexanecarboxamide], the “Increase of coronary blood flow in %” value [2] was 347% and the IC50 [1] was 0.03 µM.
